Measurements published in patent publication US4628059A, “Dopamine-β-hydroxylase inhibitors” (SmithKlein Beckman Corporation, priority 1985, dated 1986).
Like-named read-outs stand apart in the source and are kept apart here.

Legend:
[1] = target: T1, dopamine-β-hydroxylase (DBH) (Bos taurus, UniProt P15101); assay: in vitro DBH inhibition (conversion of tyramine to octopamine, spectrophotometric at 330 nm); format: biochemical
T1 sequence (P15101 1-610): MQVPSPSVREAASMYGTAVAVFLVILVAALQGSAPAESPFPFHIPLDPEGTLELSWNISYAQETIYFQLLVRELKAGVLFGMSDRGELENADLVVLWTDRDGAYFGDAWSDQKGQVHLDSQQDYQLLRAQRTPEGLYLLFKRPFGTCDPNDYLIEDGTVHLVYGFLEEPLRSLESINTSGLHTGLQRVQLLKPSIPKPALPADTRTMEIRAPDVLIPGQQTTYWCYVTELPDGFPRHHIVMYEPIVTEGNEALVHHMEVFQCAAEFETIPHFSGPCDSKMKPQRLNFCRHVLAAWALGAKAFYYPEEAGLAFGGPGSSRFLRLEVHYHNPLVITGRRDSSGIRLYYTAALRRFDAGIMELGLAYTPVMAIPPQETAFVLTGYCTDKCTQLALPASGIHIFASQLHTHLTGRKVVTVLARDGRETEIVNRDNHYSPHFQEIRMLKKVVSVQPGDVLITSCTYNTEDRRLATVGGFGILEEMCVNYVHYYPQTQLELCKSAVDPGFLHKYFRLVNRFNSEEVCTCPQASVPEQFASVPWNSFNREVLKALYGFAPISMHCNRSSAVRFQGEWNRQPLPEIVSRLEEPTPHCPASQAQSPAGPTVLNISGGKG
Experimental: Because the compounds of Formulae I and II inhibit DBH activity, they have therapeutic value as diuretic, natriuretic, cardiotonic, antihypertensive and vasodilator agents, as well as antiulcerogenic agents. Listed in Table I are the compounds of the invention and compounds included in the pharmaceutical compositions of the invention and useful in the methods of the invention that were tested for in vitro DBH inhibition by a standard procedure for assaying conversion of tyramine to octopamine in the presence of DBH. J. J. Pisano, et al., Biochem. Biophys. Acta; 43, 566-568 (1960). Octopamine was assayed following sodium periodate oxidation to p-hydroxybenzaldehyde by measuring spectrophotometric absorbance at 330 nm. In Table I, inhibition is given in molar concentration of compound at which DBH activity was halved (IC50). Melting points (mp) are given in °C.

DBH = conditions: literature, cited from earlier work
[2] = Ehrreich et al., literature; cited from earlier work
[3] = literature; cited from earlier work
[4] = system: peripheral dopamine (DA) and norepinephrine (NE) levels; assay: effect in vivo on peripheral dopamine (DA) and norepinephrine (NE) levels; set-up: species or system spontaneously hypertensive rats; conditions: oral, two doses approx. 18 h apart, sacrificed about 2 h after second dose, fusaric acid 50 mg/kg; for DA / NE: average of groups of five; for DA: control (saline) 0.314; for DA / DA/NE Ratio: * p <.001 for both compounds; for NE: control (saline) 9.98; for DA/NE Ratio: control (saline) 0.0314
Experimental: One of the compounds of the invention was tested for its effect in vivo on peripheral dopamine (DA) and norepinephrine (NE) levels substantially by the procedure of DaPrada and Zurcher, Life Sciences, 19, 1161, (1976). Groups of five spontaneously hypertensive rats were dosed orally, twice, the second dose approximately 18 hours after the first, and were sacrificed about 2 hours after the second dose.

[5] = system: spontaneously hypertensive rats; assay: mean arterial blood pressure in spontaneously hypertensive rats; format: in vivo; conditions: 50 mg/kg intraperitoneally, monitored for 260 minutes, tail artery cannulae
Experimental: Further, spontaneously hypertensive rats were dosed with a suspension or solution of 4-(3'-fluorobenzyl)-1,2,4-triazole-3-thiol at a dose of 50 mg/kg intraperitoneally, and mean arterial blood pressure was monitored for 260 minutes using indwelling cannulae positioned in the tail arteries.

[6] = in vitro, tyramine to octopamine conversion, read-out: IC50 (molar concentration of compound at which DBH activity was halved)

Compound	IC50 [1, 6] [µM]	DBH inhibition (in words) (DBH)	other results
COc1c(F)cc(Cn2cnnc2S)cc1F [4-(3',5'-difluoro-4'-methoxybenzyl)-1,2,4-triazole-3-thiol]	19	–	–
CCCCc1ccc(C(N)=O)nc1 [Bupicomide, 5-(n-butyl)picolinamine]	–	DBH inhibitor	antihypertensive activity [2]: antihypertensive activity
NNc1ccc(C(=O)O)nc1 [5-hydrazinopicolinic acid]	–	inhibit DBH	–
CN(C)C(=S)SCc1ccc(C(=O)O)nc1 [5-(dimethyldithiocarbamoylmethyl)picolinic acid]	–	DBH inhibitors	–
CCCC(=O)c1ccc(C(=O)O)nc1 [5-butyroylpicolinic acid]	–	inhibit DBH	–
Sc1nncn1Cc1ccccc1 [4-benzyl-1,2,4-triazole-3-thiol]	24	–	–
O=C(O)c1ccc(CCCCCl)cn1 [5-(4-chlorobutyl)picolinic acid]	–	inhibit DBH	–
CCCCc1ccc(C(=O)O)nc1 [Fusaric acid]	–	–	toxicity [3]: hepatotoxic; IC50 [1]: 0.8 µM; DA [4]: 0.715 µg/g; NE [4]: 8.19 µg/g; DA/NE Ratio [4]: 0.0875
O=C(O)c1ccc(CCC(Br)CBr)cn1 (stereo not shown) [5-(3,4-dibromobutyl)picolinic acid]	–	DBH inhibitors	–
NNCc1ccccc1 [benzylhydrazine]	–	apparently act as competitive inhibitors	–
Fc1cc(F)cc(Cn2cnnc2S)c1 [4-(3',5'-difluorobenzyl)-1,2,4-triazole-3-thiol]	1	–	–
NOCc1ccccc1 [Benzyloxyamine, benzyloxyamine]	–	apparently act as competitive inhibitors	–
phenylpicolinic acid	–	–	DBH inhibitory activity relative to fusaric acid (DBH; Runti et al.): twice the inhibitory activity of fusaric acid
Nc1ccc(C(=O)O)nc1 [5-aminopicolinic acid]	–	inhibit DBH	–
Fc1cccc(Cn2cnnc2S)c1 [4-(3'-fluorobenzyl)-1,2,4-triazole-3-thiol]	2.7	–	DA [4]: 0.958 µg/g; NE [4]: 8.46 µg/g; DA/NE Ratio [4]: 0.114; mean arterial blood pressure reduction compared to vehicle-treated controls [5]: statistically significant blood pressure reductions at 60, 140, 160, 200, and 240 minutes
Oc1c(F)cc(Cn2cnnc2S)cc1F [4-(3',5'-difluoro-4'-hydroxybenzyl)-1,2,4-triazole-3-thiol]	0.02	–	–
